Data taken from PMC11345330, “Structural, Biochemical, and Phylogenetic Analysis of Bacterial and Fungal Carbohydrate Esterase Family 15 Glucuronoyl Esterases in the Rumen” (The Protein Journal, 2024).

Target: T1, FsCE15 (Fibrobacter succinogenes, UniProt C9RKY6)
T1 construct: gene FSU_2898; codon-optimised synthetic gene, His6 tag (C-terminal for crystals)
Assay: continuous coupled uronic acid assay (Megazyme K-Uronic)
Assay type: biochemical
Details: pH 7.0, 3-component buffer, 2 mM substrate

T1 sequence (C9RKY6 entry or part of it): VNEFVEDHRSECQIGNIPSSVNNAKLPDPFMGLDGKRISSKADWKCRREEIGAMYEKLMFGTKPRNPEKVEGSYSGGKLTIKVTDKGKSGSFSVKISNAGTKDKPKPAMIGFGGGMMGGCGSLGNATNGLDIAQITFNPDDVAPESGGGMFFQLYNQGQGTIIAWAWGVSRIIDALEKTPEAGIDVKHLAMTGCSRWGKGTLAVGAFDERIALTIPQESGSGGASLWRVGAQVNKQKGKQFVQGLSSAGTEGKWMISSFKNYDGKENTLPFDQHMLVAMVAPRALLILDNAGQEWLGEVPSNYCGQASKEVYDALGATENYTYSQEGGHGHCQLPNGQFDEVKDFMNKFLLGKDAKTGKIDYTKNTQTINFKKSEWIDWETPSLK

- continuous coupled uronic acid assay (Megazyme K-Uronic): All of the enzymes cleaved AllylGlcA
Compound: C=CCOC(=O)[C@H]1OC(O)[C@H](O)[C@@H](O)[C@@H]1O (stereo partly drawn) [Allyl D-glucuronate]
